A value given as a limit tells only on which side of the number the result lay.

One assay has as its target T1, Neutrophil elastase (Homo sapiens, UniProt P08246).
T1 sequence (P08246 whole entry): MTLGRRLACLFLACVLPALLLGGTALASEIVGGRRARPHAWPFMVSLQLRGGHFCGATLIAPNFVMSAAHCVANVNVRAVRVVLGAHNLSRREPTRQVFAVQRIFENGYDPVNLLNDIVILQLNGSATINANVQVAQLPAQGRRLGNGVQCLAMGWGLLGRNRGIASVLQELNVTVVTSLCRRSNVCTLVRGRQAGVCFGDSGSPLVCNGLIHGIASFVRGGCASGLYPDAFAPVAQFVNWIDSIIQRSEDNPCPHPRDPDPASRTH
Nature of the assay: Inhibitory activity against human leukocyte elastase (HLE) was determined.

The target of assay [1] is T2, Neutrophil elastase (Homo sapiens) (UniProt P08246).
T2 sequence (whole entry): T1 sequence (P08246 whole entry)
Description: Rate constant for the compound was determined against human leukocyte elastase (HLE)

Assay [2] deals with T2, Neutrophil elastase (Homo sapiens). This is another data set of the same source.
Description: Rate constant for the compound was determined (k2/ki) against human leukocyte elastase (HLE)
Assay [3] shares this target. The source holds these as a separate data set.
Description: Alkaline hydrolysis constant for the compound was determined against human leukocyte elastase (HLE)

On Neutrophil elastase, `C[C@@H](O)[C@H]1C(=O)N2S/C(=C\C(=O)OC(C)(C)C)S[C@H]12` returned a Ki of 12 µM. In addition, in assay [1], the k off is 0.002 s⁻¹. The same molecule had a k on in assay [2] of 150 M⁻¹ s⁻¹. In assay [3], this molecule yielded a kOH of 3 M⁻¹ s⁻¹.

Turning to `C[C@@H](O)[C@H]1C(=O)N2C/C(=C/C(=O)OC(C)(C)C)S[C@H]12`, the affinity at Neutrophil elastase corresponds to a Ki of 4 µM.

In turn, `C[C@@H](O)[C@H]1C(=O)N2S/C(=C/C(=O)OC(C)(C)C)S[C@H]12` displayed a Ki on Neutrophil elastase of 1.5 µM. In assay [1], the k off came out at 0.0014 s⁻¹. The k on in assay [2] was 1000 M⁻¹ s⁻¹. Moreover, in assay [3], the kOH came to 12 M⁻¹ s⁻¹.

Molecule `C[C@@H](OC(=O)Cc1ccccc1)[C@H]1C(=O)N2S/C(=C/C(=O)OC(C)(C)C)S[C@H]12` gave a Ki on Neutrophil elastase of 0.4 µM. The k off in assay [1] amounted to 0.0004 s⁻¹. Besides, the k on in assay [2] was 970 M⁻¹ s⁻¹. In assay [3], the kOH amounted to 0.04 M⁻¹ s⁻¹.

Consider `C[C@@H](O)[C@H]1C(=O)N2S/C(=C/C(=O)OC(C)(C)C)C[C@H]12`, for which the Ki at Neutrophil elastase turned out to be 3.2 µM. This lies in the single-digit micromolar range.

Turning to `C[C@@H](O)[C@@H]1C(=O)N2S/C(=C/C(=O)OC(C)(C)C)S[C@@H]12`, the Ki at Neutrophil elastase was > 100 µM. Moreover, the kOH in assay [3] was found to be 10.3 M⁻¹ s⁻¹.

As for `C[C@@H](O)[C@H]1C(=O)N2C/C(=C/C(=O)OC(C)(C)C)C[C@H]12`, the Ki at Neutrophil elastase was > 100 µM.

For orientation: Ki means the equilibrium dissociation constant of an inhibitor or competing ligand from its target. Read a low Ki as tighter binding.

(Values after ChEMBL document CHEMBL1149952, “Inhibition of human leukocyte elastase (HLE) by novel bicyclic -lactams” (Bioorg Med Chem Lett, 1993).)
